Measured values from article PMC1977344 (British Journal of Cancer, 1992).
Like-named read-outs stand apart in the source and are kept apart here.

How the values were obtained:
[1] = cited from earlier work
[2] = biological target: T1, delta receptor (Rattus norvegicus, UniProt P33533); assay: Radioligand binding, delta assay (3H-DSLET displacement with DAGO block, rat brain P2 homogenate); parameters: species or system Wistar rats
T1 construct: from tissue

[3] = biological target: T2, total mu (mu 1 and mu 2) receptor (Rattus norvegicus, UniProt P33535); assay: Radioligand binding, total mu assay (3H-DAGO displacement, rat brain P2 homogenate); parameters: species or system Wistar rats; specific binding of the 3H-ligand remaining, total mu assay: dose or concentration left out as unconfirmed
T2 construct: from tissue
T2 sequence (P33535 whole entry): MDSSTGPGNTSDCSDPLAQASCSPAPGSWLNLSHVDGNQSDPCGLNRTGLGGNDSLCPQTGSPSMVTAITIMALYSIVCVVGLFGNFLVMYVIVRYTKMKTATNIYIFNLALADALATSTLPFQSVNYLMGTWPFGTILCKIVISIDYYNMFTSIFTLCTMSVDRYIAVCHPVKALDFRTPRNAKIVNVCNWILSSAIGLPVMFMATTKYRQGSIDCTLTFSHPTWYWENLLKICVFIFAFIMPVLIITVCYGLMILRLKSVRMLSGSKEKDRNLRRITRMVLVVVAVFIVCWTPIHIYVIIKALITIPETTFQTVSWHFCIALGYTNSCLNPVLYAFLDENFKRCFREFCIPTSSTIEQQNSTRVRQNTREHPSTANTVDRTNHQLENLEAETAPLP

[4] = normal volunteers; ref Thompson et al., 1990; cited from earlier work
[5] = ref Shimomum et al. (1971); cited from earlier work
[6] = system: kappa receptor; parameters: method as in Pasternak et al., 1987; settings: not yet accurately determined; ref Pasternak et al., 1987; cited from earlier work
[7] = biological target: mu 1 receptor (Rattus norvegicus, UniProt P33535); assay: Radioligand binding, mu 1 assay (3H-DSLET displacement with DPDPE block, rat brain P2 homogenate); parameters: species or system Wistar rats
Sequence of mu 1 receptor (P33535 whole entry): as above

[8] = biological target: T3, mu 2 receptor (Rattus norvegicus, UniProt P33535); assay: biochemical; settings: IC50 mu 2 receptor
T3 sequence (P33535 whole entry): as above

[9] = open study in man; ref Osborne et al., 1989; cited from earlier work
[10] = system: delta receptor; parameters: method as in Oguri et al. (1987); settings: 3H-leucine enkephalin; ref Oguri et al. (1987); cited from earlier work
[11] = biological target: T3, mu 2 receptor; settings: for fold lower affinity of M6G than morphine at the mu 2 receptor (IC50 ratio): from mean IC50s; for specific binding of the 3H-ligand remaining, mu 2 assay: test substance at 5 µM (5 pM in methods)
[12] = test substance at 5 µM (5 pM in methods)

T1 sequence (P33533 whole entry): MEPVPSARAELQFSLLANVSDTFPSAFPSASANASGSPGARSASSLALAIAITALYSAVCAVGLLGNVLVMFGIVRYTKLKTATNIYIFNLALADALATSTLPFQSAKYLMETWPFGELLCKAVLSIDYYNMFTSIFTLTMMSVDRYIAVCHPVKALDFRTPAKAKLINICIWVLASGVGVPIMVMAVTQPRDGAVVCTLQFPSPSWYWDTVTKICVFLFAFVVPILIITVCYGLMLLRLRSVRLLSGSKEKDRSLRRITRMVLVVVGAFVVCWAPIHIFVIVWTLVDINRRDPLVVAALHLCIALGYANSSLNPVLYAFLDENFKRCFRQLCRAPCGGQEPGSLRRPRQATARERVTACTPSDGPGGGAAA

In the case of `CN1CC[C@]23c4c5ccc(O[C@@H]6O[C@H](C(=O)O)[C@@H](O)[C@H](O)[C@H]6O)c4O[C@H]2[C@@H](O)C=C[C@H]3[C@H]1C5` [M3G, morphine 3-glucuronide], the analgesic activity ([1]; ref Osborne et al., 1986, Hanks et al., 1987, Hoskin & Hanks, 1990) is listed as “devoid of analgesic activity”.

For `CN1CC[C@]23c4c5ccc(O)c4O[C@H]2[C@@H](O[C@@H]2O[C@H](C(=O)O)[C@@H](O)[C@H](O)[C@H]2O)C=C[C@H]3[C@H]1C5` [M6G, morphine 6-glucuronide], the IC50 [2] is given as 75 nM, the IC50 [3] is given as 80 nM and the “nausea and sedation versus morphine” value [4] is given as “less nausea and no sedation”. For the same molecule, the “respiratory depression versus equipotent dose of morphine” value [4] was “significantly less respiratory depression”, the “systemic LD50 relative to that of morphine” value [5] was 88% and the “affinity for the kappa receptor” value [6] was “thought to be low”. It also gave an IC50 ([7]; read-out: IC50 mu 1 receptor, whole brain preparations, P2 fraction of whole rat brain homogenate, single assay) of 170 nM, an IC50 ([8]; brain minus hypothalami, P2 fraction, 3H-DAGO 1.5 nM, DSLET 5 nM block, mean ± SEM) of 82 nM and an IC50 ([8]; whole brain preparations, P2 fraction of whole rat brain homogenate, single assay) of 66 nM. For the same molecule, the “systemic analgesic potency advantage over morphine” value ([1]; systemic, ref Shimomura et al., 1971, Abbott & Palmour, 1988) was 3 fold, the “nausea or sedation at doses sufficient to give significant pain relief” value [9] was “no nausea or sedation was seen” and the “affinity for the delta receptor relative to morphine” value [10] was “slightly higher affinity”. For the same molecule, the “fold lower affinity of M6G than morphine at the mu 2 receptor (IC50 ratio)” value [11] was 4.8 fold and the “fold lower affinity of M6G than morphine at the mu 2 receptor (IC50 ratio)” value ([11]; listed as Morphine 6-glucuronide) was 4 fold.

With `CN1CC[C@@]23CCCC[C@@H]2[C@@H]1Cc1ccc(O)cc13` [dextrorphan] the “specific binding of the 3H-ligand remaining, delta assay” value [2, 12] was “no inhibition was observed”, the “specific binding of the 3H-ligand remaining, total mu assay” value [3] was 70% and the “specific binding of the 3H-ligand remaining, mu 1 assay” value [7, 12] was “no inhibition was observed”. For the same molecule, the “specific binding of the 3H-ligand remaining, mu 2 assay” value [11] was 72%.

With `CN1CC[C@]23CCCC[C@H]2[C@H]1Cc1ccc(O)cc13` [levorphanol] the “specific binding of the 3H-ligand remaining, delta assay” value [2] was 0%, the “specific binding of the 3H-ligand remaining, total mu assay” value [3] was 0% and the “specific binding of the 3H-ligand remaining, mu 1 assay” value [7] was 1%. For the same molecule, the “specific binding of the 3H-ligand remaining, mu 2 assay” value [11] was 28%.
